Reference: patent US20050191308A1 (priority 1999, published 2005)

Tested on: M. tuberculosis (Erdman)
Conditions: in vivo

CCCCCCCCCCCCCCCCCC[N+](C)(C)CCCCCCCCCCCCCCCCCC.[Br-] [DDA]
Log10 resistance, Lung, Experiment I: <0.05 log10 | Log10 resistance, Spleen, Experiment I: <0.05 log10
